Where a name gives a salt, the structure may show the parent alone. Read-outs that look alike come from different tables or passages of the source.
Target: canine TRPM8 (Canis lupus familiaris, UniProt Q1A7N1)
Assay: In vitro canine TRPM8 functional assay (Ca2+-sensitive fluorescent dye, icilin activation)
Format: cell-based
Experimental: The functional activity of representative compounds of the formula (I) of the present invention was quantified by measuring changes in intracellular calcium concentration using a Ca^2+-sensitive fluorescent dye. The changes in fluorescent signal were monitored by a fluorescence plate reader, either a FLIPR™ (Molecular Devices) or FDSS (Hamamatsu).
HEK293 cells stably expressing canine TRPM8 were routinely grown as monolayers in Dulbecco's minimum essential medium supplemented with 10% FBS, 2 mM L-glutamine, 100 units/mL penicillin, 100 ug/mL streptomycin and 400 μg/mL G418. Cells were maintained in 5% CO2 at 37° C. At 24 hr prior to assay, cells were seeded in black wall, clear-base poly-D-lysine coated 384-well plates (BD Biosciences, NJ, USA) at a density of 5,000 cells per well in culture medium and grown overnight in 5% CO2 at 37° C. On assay day, growth media was removed, and cells were loaded with Calcium 3 Dye (Molecular Devices) for 35 min at 37° C., under 5% CO2 and then incubated for 25 min at room temperature and atmosphere. Subsequently, cells were tested for agonist-induced increases in intracellular Ca^2+ levels using FLIPR™ or FDSS. Cells were treated with compounds of the formula (I) at varying concentrations and intracellular Ca^2+ was measured for 5 min prior to the addition of icilin to each well to achieve a final concentration that produces an approximately 80% maximal response.
Maximal fluorescence intensity (FI) achieved upon addition of icilin was exported from the FLIPR™ or FDSS software and further analyzed using GraphPad Prism 3.02 (Graph Pad Software Inc., CA, U.S.A.). Basal FI was subtracted prior to normalizing data to percent of maximal response. Curves were generated using the average of quadruplicate wells for each data point using nonlinear regression of either sigmoidal dose response or sigmoidal dose response (variable slope). Finally, the EC50 and IC50 values were calculated with the best-fit curve determined by GraphPad Prism

[1] = 0.2 μM compound, HEK293 cells stably expressing canine TRPM8, icilin-induced Ca2+ response
[2] = HEK293 cells stably expressing canine TRPM8, icilin-induced Ca2+ response, eight-point concentration-response

Sequence of canine TRPM8 (Q1A7N1 1-1104): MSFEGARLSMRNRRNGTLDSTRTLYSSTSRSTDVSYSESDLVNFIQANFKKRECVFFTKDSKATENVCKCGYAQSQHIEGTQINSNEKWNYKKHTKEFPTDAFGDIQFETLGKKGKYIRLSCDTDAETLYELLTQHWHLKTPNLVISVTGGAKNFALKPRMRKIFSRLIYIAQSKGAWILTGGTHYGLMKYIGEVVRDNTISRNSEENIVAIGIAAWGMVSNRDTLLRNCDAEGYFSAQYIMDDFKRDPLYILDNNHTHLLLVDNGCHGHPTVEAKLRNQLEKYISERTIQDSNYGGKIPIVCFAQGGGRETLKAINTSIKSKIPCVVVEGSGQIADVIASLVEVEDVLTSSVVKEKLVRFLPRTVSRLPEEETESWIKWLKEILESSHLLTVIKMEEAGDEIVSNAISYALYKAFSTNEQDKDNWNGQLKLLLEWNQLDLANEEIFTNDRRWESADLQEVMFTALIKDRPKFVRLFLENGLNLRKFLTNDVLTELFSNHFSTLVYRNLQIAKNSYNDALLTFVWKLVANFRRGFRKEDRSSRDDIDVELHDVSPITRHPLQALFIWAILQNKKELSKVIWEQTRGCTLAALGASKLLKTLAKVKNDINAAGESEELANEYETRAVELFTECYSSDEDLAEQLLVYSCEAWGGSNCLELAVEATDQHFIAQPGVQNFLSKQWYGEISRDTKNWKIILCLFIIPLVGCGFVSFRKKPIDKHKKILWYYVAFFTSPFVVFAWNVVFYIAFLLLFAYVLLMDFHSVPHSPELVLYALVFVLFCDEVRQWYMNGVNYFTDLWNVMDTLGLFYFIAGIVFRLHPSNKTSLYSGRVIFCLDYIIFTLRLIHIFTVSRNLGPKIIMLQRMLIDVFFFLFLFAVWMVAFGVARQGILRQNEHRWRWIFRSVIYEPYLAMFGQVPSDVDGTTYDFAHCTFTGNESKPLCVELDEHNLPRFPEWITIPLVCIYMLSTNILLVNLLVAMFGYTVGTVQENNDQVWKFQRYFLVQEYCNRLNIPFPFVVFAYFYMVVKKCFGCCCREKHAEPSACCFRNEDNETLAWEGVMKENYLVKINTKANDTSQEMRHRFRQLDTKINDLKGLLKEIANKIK

Row | SMILES | inhibition at 0.2 µM [1] [%] | IC50 [2] [nM] | further results
1 | Cn1nc(C(C)(C)C)c(Cl)c1-c1nc2nc(-c3ccccc3C(F)(F)F)ccc2[nH]1 [Compound 32, 2-(5-tert-Butyl-4-chloro-2-methyl-2H-pyrazol-3-yl)-5-(2-trifluoromethyl-phenyl)-1H-imidazo[4,5-b]pyridine hydrochloride] | 100 | 7.6 | –
2 | Cn1nc(C(C)(C)C)c(Cl)c1-c1nc2nc(-c3ccccc3F)ccc2[nH]1 [Compound 33, 2-(5-tert-Butyl-4-chloro-2-methyl-2H-pyrazol-3-yl)-5-(2-fluoro-phenyl)-1H-imidazo[4,5-b]pyridine hydrochloride] | 98 | 40 | –
3 | Cn1nc(C(C)(C)C)cc1-c1nc2nc(-c3ccccc3C(F)(F)F)ccc2[nH]1 [Compound 34, 2-(5-tert-Butyl-2-methyl-2H-pyrazol-3-yl)-5-(2-trifluoromethyl-phenyl)-1H-imidazo[4,5-b]pyridine] | 89 | 77 | –
4 | Cc1nc(-c2ccccc2C(F)(F)F)nc2nc(-c3cc(C(C)(C)C)nn3C)[nH]c12 [Compound 35, 8-(5-tert-Butyl-2-methyl-2H-pyrazol-3-yl)-6-methyl-2-(2-trifluoromethyl-phenyl)-7H-purine trifluoroacetic acid salt] | 67 | – | –
5 | Cn1nc(C(C)(C)C)cc1-c1nc2nc(-c3ccccc3F)ccc2[nH]1 [Compound 36, 2-(5-tert-Butyl-2-methyl-2H-pyrazol-3-yl)-5-(2-fluoro-phenyl)-1H-imidazo[4,5-b]pyridine] | 26 | – | –
6 | Cn1nc(C(C)(C)C)cc1-c1nc2cc(-c3ccccc3OC(F)(F)F)ncc2[nH]1 [Compound 39, 2-(5-tert-Butyl-2-methyl-2H-pyrazol-3-yl)-6-(2-trifluoromethoxy-phenyl)-3H-imidazo[4,5-c]pyridine hydrochloride] | – | 75 | inhibition at 0.2 µM (HEK293, 0.2 μM compound, HEK293 cells stably expressing canine TRPM8, icilin-induced Ca2+ response): 69%
7 | Cl.Cn1nc(C(C)(C)C)cc1-c1nc2cc(-c3ccccc3C(F)(F)F)ncc2[nH]1 [Compound 40, 2-(5-tert-Butyl-2-methyl-2H-pyrazol-3-yl)-6-(2-trifluoromethyl-phenyl)-3H-imidazo[4,5c]pyridine hydrochloride] | – | – | % Inh @ 0.2 μM: 86%; IC50: 59 nM
8 | Cn1nc(C(C)(C)C)cc1-c1nc2cc(-c3ccccc3Cl)ncc2[nH]1 [Compound 41, 2-(5-tert-Butyl-2-methyl-2H-pyrazol-3-yl)-6-(2-chloro-phenyl)-3H-imidazo[4,5-c]pyridine hydrochloride] | 94 | 51 | –
9 | Cn1nc(C(C)(C)C)cc1-c1nc2cc(-c3ccccc3F)ncc2[nH]1 [Compound 42, 2-(5-tert-Butyl-2-methyl-2H-pyrazol-3-yl)-6-(2-fluoro-phenyl)-3H-imidazo[4,5-c]pyridine hydrochloride] | 75 | 59 | –
10 | Cl.Cn1nc(C(C)(C)C)c(Cl)c1-c1nc2cc(-c3ccccc3F)ncc2[nH]1 [Compound 43, 2-(5-tert-Butyl-4-chloro-2-methyl-2H-pyrazol-3-yl)-6-(2-fluoro-phenyl)-3H-imidazo[4,5-c]pyridine hydrochloride] | – | 22 | % Inh @ 0.2 μM (0.2 μM compound, HEK293 cells stably expressing canine TRPM8, icilin-induced Ca2+ response, hydrochloride): 100%
11 | Cn1nc(C(C)(C)C)c(C#N)c1-c1nc2cc(-c3ccccc3F)ncc2[nH]1 [Compound 44, 3-tert-Butyl-5-[6-(2-fluoro-phenyl)-3H-imidazo[4,5-c]pyridin-2-yl]-1-methyl-1H-pyrazole-4-carbonitrile hydrochloride] | 98 | 37 | –
12 | Cn1nc(C(C)(C)C)c(C#N)c1-c1nc2cc(-c3ccccc3C(F)(F)F)ncc2[nH]1 [Compound 45, 3-tert-Butyl-1-methyl-5-[6-(2-trifluoromethyl-phenyl)-3H-imidazo[4,5-c]pyridin-2-yl]1H-pyrazole-4-carbonitrile hydrochloride] | 98 | 27 | –

From patent US9409915B2, “Substituted aza-bicyclic imidazole derivatives useful as TRPM8 receptor modulators” (Janssen Pharmaceutica NV, priority 2010, dated 2016)
